Laboratory results as given in ChEMBL document CHEMBL3808336, “Pyrazolylbenzo[d]imidazoles as new potent and selective inhibitors of carbonic anhydrase isoforms hCA IX and XII” (Bioorg Med Chem, 2016).

Legend:
Carbonic anhydrase 9 = Carbonic anhydrase 9 (Homo sapiens, UniProt Q16790); assay: Inhibition of recombinant human carbonic anhydrase 9 preincubated for 15 min to 72 hrs by stopped flow CO2 hydrase assay
Carbonic anhydrase 1 = Carbonic anhydrase 1 (Homo sapiens, UniProt P00915); assay: Inhibition of recombinant human carbonic anhydrase 1 preincubated for 15 min to 72 hrs by stopped flow CO2 hydrase assay
Sequence of Carbonic anhydrase 1 (P00915 whole entry): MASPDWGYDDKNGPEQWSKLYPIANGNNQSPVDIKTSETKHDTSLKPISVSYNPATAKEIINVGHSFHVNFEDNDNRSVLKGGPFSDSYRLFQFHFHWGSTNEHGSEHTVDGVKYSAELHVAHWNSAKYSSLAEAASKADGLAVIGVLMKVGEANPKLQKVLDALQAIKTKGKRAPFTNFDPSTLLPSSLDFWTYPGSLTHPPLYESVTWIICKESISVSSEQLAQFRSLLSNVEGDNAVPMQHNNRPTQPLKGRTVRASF

Carbonic anhydrase 2 = Carbonic anhydrase 2 (Homo sapiens, UniProt P00918); assay: Inhibition of recombinant human carbonic anhydrase 2 preincubated for 15 min to 72 hrs by stopped flow CO2 hydrase assay

| Structure (SMILES) | Ki (Carbonic anhydrase 9) | Ki (Carbonic anhydrase 1) | Ki (Carbonic anhydrase 2) |
| --- | --- | --- | --- |
| c1ccc(-c2nn(-c3ccccc3)cc2-c2nc3ccccc3[nH]2)cc1 | 55.9 nM | > 40000 nM | > 40000 nM |
| Fc1ccc(-c2nn(-c3ccccc3)cc2-c2nc3ccccc3[nH]2)cc1 | – | > 40000 nM | > 40000 nM |
| Clc1ccc(-c2nn(-c3ccccc3)cc2-c2nc3ccccc3[nH]2)cc1 | 7.5 nM | > 40000 nM | > 40000 nM |
| COc1ccc(-c2nn(-c3ccccc3)cc2-c2nc3ccccc3[nH]2)cc1 | 48.7 nM | > 40000 nM | > 40000 nM |
| NS(=O)(=O)c1ccc(-n2cc(-c3nc4ccccc4[nH]3)c(-c3ccc(Cl)cc3)n2)cc1 | 70.2 nM | – | – |
| NS(=O)(=O)c1ccc(-n2cc(-c3nc4ccccc4[nH]3)c(-c3ccc(F)cc3)n2)cc1 | 74.7 nM | – | – |
| NS(=O)(=O)c1ccc(-n2cc(-c3nc4ccccc4[nH]3)c(-c3ccccc3)n2)cc1 | 24.9 nM | – | – |
| NS(=O)(=O)c1ccc(-n2cc(-c3nc4ccccc4[nH]3)c(-c3ccc(Br)cc3)n2)cc1 | 641 nM | – | – |
| Cc1ccc(-c2nn(-c3ccccc3)cc2-c2nc3ccccc3[nH]2)cc1 | 23.3 nM | > 40000 nM | > 40000 nM |
| Brc1ccc(-c2nn(-c3ccccc3)cc2-c2nc3ccccc3[nH]2)cc1 | 55.1 nM | – | > 40000 nM |
| COc1ccc(-c2nn(-c3ccc(S(N)(=O)=O)cc3)cc2-c2nc3ccccc3[nH]2)cc1 | 554 nM | – | – |
